Values quoted from earlier work, collected in US20200085789A1, “USE OF A PROTEASOME INHIBITOR FOR THE TREATMENT OF CENTRAL NERVOUS SYSTEM (CNS) CANCERS” (Celgene International II Sàrl, priority 2017, published 2020).

Details: in vivo; cited from earlier work

SMILES: CC(C)C[C@H](NC(=O)[C@H](Cc1ccccc1)NC(=O)c1cnccn1)B(O)O [BTZ, bortezomib, reference compound]
- crossing of the blood brain barrier: does not cross the blood brain barrier
